Laboratory results from patent US7091040B1, “P450/acetaminophen genetically directed enzyme prodrug therapy (GDEPT)” (Innovata PLC, priority 1999, dated 2006).

How the values were obtained:
[1] = Viability of V79 MZ cells, alone or co-cultured with H1A2 MZ cells (bystander effect), with acetaminophen, trypan blue exclusion; assay type: cell-based, Chinese hamster; conditions: Chinese hamster; for viability at 4 mM: 4 mM acetaminophen 6 h, then 24 h in culture medium; for viability at 0 h, 4 mM / viability at 6 h, 4 mM: 4 mM acetaminophen in PBS
Protocol: (§1) Table 1 represents the bystander effect on viability produced by incubating H1A2 MZ cells (stably transfected with human CYP1A2) with various cell-lines in the presence of acetaminophen. Tumour cells or V79 MZ cells (non transfected, parental cells) were co-cultured overnight with various mixtures of H1A2 MZ cells (as indicated in the Table), […] the cells were then washed once with PBS and maintained for either 24 or 48 h in culture medium appropriate to each cell type, as detailed in the Methods section. At 0, 6, 24 or 48 h the cells were washed in PBS and viability of the mixed cell population determined by trypan blue exclusion. The data shown are mean values±SEM of 4 separate determinations. Statistical significance was determined at each time point by comparing viability measurements in the mixed cell populations with both the viability determined at 0 h and in the absence of H1A2 MZ cells in the mixture 2×2 contingency tables using the 2-tailed Chi-squared test with Yate's correction. Viability was determined in a total of 1500 cells at each time point. Levels of significance are indicated as **p<0.001; ***p<0.0001;
(§2) FIG. 4 represents the bystander effect on viability produced by incubating stably transfected, acetaminophen-activating H1A2 MZ cells with non-transfected parental V79 MZ cells. […] The cells were then washed in PBS and the viability of the mixed cell population determined by trypan blue exclusion. The cultures comprised V79 MZ cells only (open squares), and V79 MZ cells mixed with 5% (solid squares), 10% (open triangles), 25% (open circles) and 50% (solid circles) H1A2 MZ cells. In addition, the viability of H1A2 MZ cells in the presence (crosses) and absence (solid triangles) of acetaminophen is shown.

[2] = test system: V79 MZ cells; experiment: as above; assay type: cell-based, Chinese hamster
Protocol: as §1, §2

[3] = test system: COS cells; experiment: Viability of COS cells transiently transfected with mouse CYP1A2 versus non-transfected COS cells, tritiated thymidine incorporation; assay type: cell-based
Protocol: FIG. 1 is a graphical representation of an acetaminophen titration showing the sensitivity of COS cells transiently transfected with a vector incorporating mouse CYP1A2 and non-transfected control COS cells. Cell viability is monitored by tritiated thymidine incorporation;
FIG. 2 is a cell viability time course of COS cells transiently transfected with mouse CYP1A2 and non-transfected control COS cells over a 24 hr period.
Acetaminophen concentration is 10 mM. Cell viability is monitored by tritiated thymidine incorporation;
COS cells are plated at 1.5×10^5 per well in 6 well tissue culture dishes the evening before transfection. […] All tissue culture reagents can be obtained from Gibco BRL, Paisley, UK.
To the LPA/DNA complex, 200 μl of serum free medium is added to each LPA/DNA sample which is then gently added to the cells over a period of 3–4 seconds. Cells are returned to a 37° C. CO2 incubator for 6 hours. […]
Transfected COS cells are either exposed to various concentrations of acetaminophen or incubated in the presence of 10 mM acetaminophen and cell viability monitored with time. ^3H-thymidine (Amersham International UK, 100 Ci/mmol, 5 μCi per assay), is added to treated and control cultures and aliquots removed and acid precipitable counts assessed by liquid scintillation using a Beckton Liquid Scintillation Counter.

[4] = V79 MZ cells + 5% H1A2 MZ cells
[5] = V79 MZ cells + 10% H1A2 MZ cells
[6] = V79 MZ cells + 25% H1A2 MZ cells
[7] = V79 MZ cells + 50% H1A2 MZ cells

## CC(=O)Nc1ccc(O)cc1 [acetaminophen]
[1]; [4]
  viability at 4 mM: 0%
  viability at 0 h, 4 mM: 98 ± 1%
  viability at 6 h, 4 mM: 52%
[1]; [5]
  viability at 4 mM: 0%
  viability at 0 h, 4 mM: 98 ± 1%
  viability at 6 h, 4 mM: 39 ± 6%
[1]; [6]
  viability at 4 mM: 0%
  viability at 0 h, 4 mM: 97 ± 2%
  viability at 6 h, 4 mM: 20 ± 4%
[1]; [7]
  viability at 4 mM: 0%
  viability at 0 h, 4 mM: 96 ± 3%
  viability at 6 h, 4 mM: 15 ± 7%
[1]; V79 MZ cells, 0% H1A2 MZ cells
  viability at 4 mM: 98 ± 1%
  viability at 0 h, 4 mM: 99 ± 1%
  viability at 6 h, 4 mM: 94 ± 7%
[2]; V79 MZ cells + 5% H1A2 MZ cells, 4 mM acetaminophen 6 h, then 24 h in culture medium
  Viability (%): zero
[2]; V79 MZ cells, 0% H1A2 MZ cells, 4 mM acetaminophen in PBS, 6 h
  Viability (%): no decline in cell viability
[2]; V79 MZ cells, which lack CYP1A2, acetaminophen 0.1–20 mM, 6 h
  cell viability: no loss of cell viability
[3]; 10 mM acetaminophen, transfected COS cells versus non-transfected control cells over 24 hrs
  extent of acetaminophen sensitivity over time (tritiated thymidine incorporation): increases markedly during the first 4–8 hrs
[3]; acetaminophen titration, COS cells transfected with CYP1A2 (48 hrs expression) versus non-transfected control COS cells
  sensitivity to acetaminophen (tritiated thymidine incorporation): significant increase in sensitivity
